Legend:
[1] = system: Hepatic Fatty Acid Synthesis; assay: Hepatic fatty acid synthesis after oral administration at increasing concentrations (Table VI); type: in vivo, rat; details: oral gavage, 0.4 to 1.2 mmoles/kg over 10 days
Procedure: (§1) Rats are prepared by fasting 48 hours and refeeding a 1% corn oil 70% glucose diet for several days (5-15). On the experimental day, rats are dosed 30 or 60 minutes before the 3 hour meal by oral intubation, or 60 minutes after the end of the 3 hour meal by intraperitoneal injection. (The dose concentrated is a mmoles/kg/5-10 ml H2 O or 1% gum arabic depending on the solubility of the compound.) Rats are sacrificed by decapitation after a 30 minute pulse consisting of: 1mCi^3 H2 O,5 μCi[U-^14 C]alanine, 12.3 mg. alanine, and 30.6 mg α-ketoglutaric acid in […], given at the end of the 3 hour meal by i.v. injection into the tail vein. Blood was collected, allowed to clot and the serum analyzed for triglyceride and cholesterol levels. The livers are quickly excised, saponified, and acidified (only for determining the rate of lipogenesis) and extracted with hexane. At this stage the lipids are either counted (to determine the rate of lipogenesis) or precipitated with digitonin, washed, and counted (to determine the rate of cholesterogenesis). The conversion of ^3 H2 O and [^14 C]alanine into fatty acids or sterols is determined in a PDS/3, Mark II liquid scintillation counting system. Data are expressed as moles ^3 H2 O nmoles converted into fatty acids and cholesterol per g liver per 30 minutes.
(§2) ^a Charles River female rats were fasted 48 hr, then mealfed (8 to 11
(§3) a.m.) a high carbohydrate diet for 14 days. Rats weighing 180 to 210 g (1
(§4) in each group) were dosed by gastric gavage, with either 1% gum arabic or
(§5) Compound A in 1% gum arabic. The initial dose was 0.4 mmoles (89 mg) per
(§6) kg body weight and was increased by 0.2 mmoles (44 mg) per kg body weight
(§7) every other day. The experimental period consisted of 10 days, and the
(§8) doses given were 0.4, 0.6, 0.8, 1.0 and 1.2 mmoles per kg. All rats were
(§9) fed 1/2 hr after the oral dose. On the 10th day, following the 3 hr meal,
(§10) each rat received an intravenous injection (consisting of 5 μCi
(§11) [U^14 C]alanine, 1 mCi ^3 H2 O, 12.3 mg alanine and 30.6 mg
(§12) ketoglutaric acid) and was killed 30 min later. Livers were quickly
(§13) excised, saponified, and extracted for fatty acids or cholesterol. Data
(§14) are expressed as μmoles ^3 H2 O or nmoles [^14 C]alanine
(§15) converted into fatty acids or cholesterol per gram liver per 30 min.
(§16) Each value is the mean ± SE.

[2] = system: Hepatic Cholesterol Synthesis; assay: Hepatic cholesterol synthesis after oral administration at increasing concentrations (Table VI); type: in vivo, rat; details: oral gavage, 0.4 to 1.2 mmoles/kg over 10 days
Procedure: as §1, §2, §3, §4, §5, §6, §7, §8, §9, §10, §11, §12, §13, §14, §15, §16

[3] = Serum triglycerides, cholesterol, insulin and glucose after oral administration at increasing concentrations (Table VII); type: in vivo, rat; details: oral gavage, 0.4 to 1.2 mmoles/kg over 10 days
Procedure: as §1, §2, §3, §4, §5, §6, §7, §8
fed 1/2 hr after the oral dose. On the 10th day, following the 3 hr meal
as §10, §11
ketoglutaric acid) and was killed 30 min later. Blood was collected,
allowed to clot and serum analyzed.
Each value is the mean ±SE

[4] = Body weight and food intake in ad libitum high fat fed rats, 63 day study (Table VIII); type: in vivo, rat
Procedure: (§17) As previously mentioned, the compounds disclosed and claimed herein are also useful as antiobesity agents. […] Groups of 10 rats were fed ad libitum a 10% corn oil, 60% glucose diet in accordance with the methodology described in Sullivan et al., Am. J. Clin. Nutr. 30:767-776 (1977). The effect of 4-amino-5-ethyl-3-thiophene carboxylic acid methyl ester hydrochloride on body weight, total body fat and protein was determined. The results are tabulated in Example 35 (Table VIII and Table IX) of the specification.
(§18) The antiobesity activity of 4-amino-5-ethyl-3-thiophene carboxylic acid methyl ester hydrochloride (Compound A) was evaluated in a long-term chronic experiment in which body weight gain and food consumption were monitored at least biweekly. The study was conducted on Charles River rats receiving 10% corn oil: 60% glucose (high fat) diets. For the first 32 days of this study a dose of approximately 71 mg./kg. body weight/day was given. From day 33 until the end of the study the average daily dose was increased to 130 mg./kg. body weight/day. The study included a group of rats pair-fed to the Compound A treated rats, i.e., the pair-fed animals received the same amount of food as their Compound A paired rat consumed on the previous day. Pair feeding was terminated several days after food intake in the Compound A treated groups returned to control levels. Pair-feeding to the Compound A treated group was terminated on day 22. Upon termination of the study, carcass lipid and protein levels, serum lipids and hepatic rates of fatty acid synthesis in vivo were determined. A summary of the initial and final body weights, cumulative weight gained and food consumed and average daily food intake is presented in Table VIII.
(§19) ^a Female Charles River rats (10 rats per group) were fed ad libitum
(§20) the 10% corn oil:60% glucose diet. On day 1 of the experiment rats were
(§21) divided into three groups: (1) control, (2) Compound A as a dietary
admixture (71 mg/kg body weight/day, and (3) pairfed to the Compound A
treated group. Pairfeeding was terminated on day 23. On day 33 the
concentraton of Compound A was increased to 130 mg/kg/day.

[5] = Total body fat and protein in ad libitum high fat fed rats, 63 day study (Table IX); type: in vivo, rat; details: dietary admixture 71 then (day 33) 130 mg/kg/day, 63 days
Procedure: as §17, §18, §19, §20, §21
admixture (71 mg/kg body weight/day), and (3) pairfed to the Compound A
treated group. Pairfeeding was terminated on day 22. On day 33 the
concentration of Compound A was increased to 130 mg/kg/day.

[6] = system: Fatty Acid Synthesis (liver); assay: In vivo lipogenesis in rat liver after intraperitoneal administration (Table II); details: i.p. 0.1 mmoles/kg; control 614 ± 66
Procedure: as §1, with “The livers are quickly excised, saponified, and acidified (only for determining the rate of lipogenesis) and extracted with hexane.” left out, “minutes. […]” for “minutes.”
(§22) sacrificed and rates of synthesis determined.
(§23) ^b Data are expressed as μmoles ^3 H2 O and moles[ ^1 […]

[7] = system: Cholesterol Synthesis (liver); assay: In vivo cholesterogenesis in rat liver after intraperitoneal administration (Table II); details: i.p. 0.1 mmoles/kg
Procedure: as §1, with “The livers are quickly excised, saponified, and acidified (only for determining the rate of lipogenesis) and extracted with hexane.” left out, “minutes. […]” for “minutes.”
as §22, §23

[8] = Serum lipids after intraperitoneal administration (Table III); type: in vivo, rat; details: i.p. 0.1 mmoles/kg
Procedure: as §1, with “minutes. […]” for “minutes.”
as §22

[9] = system: Fatty Acid Synthesis (liver); assay: In vivo fatty acid synthesis in rat liver after oral administration (Table IV); details: oral 1.2 mmoles/kg
Procedure: as §1
(§24) ^a Charles River CD rats (6 rats per group at 160-180 g) were fasted
(§25) 48 hours, then mealfed a high carbohydrate diet for 18 days. On the
(§26) experimental day, rats were given an oral dose (1% gum arabic or
(§27) 3amino-4-carbomethoxy-2-n-propylthiophene hydrochloride in 1% gum arabic
(§28) at the above concentrations) 30 minutes before the beginning of the meal.
(§29) At the end of the 3 hour meal, the rats were given an i.v. pulse,
sacrificed 30 minutes later and rates of synthesis were determined.
(§30) ^b Data are expressed as μmoles ^3 H2 O and nmoles
[^14 C]alanine converted into fatty acids per g liver per 30 minutes.

[10] = system: Cholesterol Synthesis (liver); assay: In vivo cholesterol synthesis in rat liver after oral administration (Table V); details: for Cholesterol Synthesis, 3H2O converted: control 1.35 ± 0.04; for Cholesterol Synthesis, [14C]alanine converted: control 33.0 ± 3.1
Procedure: as §1, §24, §25, §26, §27, §28, §29
sacrificed 30 minutes later, and rates of synthesis were determined.
as §30
[^14 C]alanine converted into cholesterol per g liver per 30 minutes.

[11] = oral 0.4 nmoles/kg (so in the source)

In the case of CCc1scc(C(=O)OC)c1N.Cl [Compound A, 4-amino-5-ethyl-3-thiophenecarboxylic acid methyl ester hydrochloride], the “Fatty Acid Synthesis, 3H2O (value in parentheses, relative to control)” value [1] is reported as 49%, the “Fatty Acid Synthesis, [14C]alanine (value in parentheses, relative to control)” value [1] is reported as 42% and the “Fatty Acid Synthesis, 3H2O” value ([1]; mean ± SE, control 36.7 ± 2.7) is reported as 18.0 ± 2.3 μmoles/g/30 min. The “Fatty Acid Synthesis, [14C]alanine” value ([1]; mean ± SE, control 685 ± 59) was 290 ± 49 nmoles/g/30 min, the “Cholesterol Synthesis, 3H2O (value in parentheses, relative to control)” value [2] was 120% and the “Cholesterol Synthesis, [14C]alanine (value in parentheses, relative to control)” value [2] was 114%. For the same molecule, the “Cholesterol Synthesis, 3H2O” value ([2]; mean ± SE, control 0.50 ± 0.06) was 0.60 ± 0.06 μmoles/g/30, the Cholesterol Synthesis, [14C]alanine ([2]; mean ± SE, control 13.9 ± 1.5) was 15.8 ± 1.6 nmol/g/30 min and the “Cholesterol (value in parentheses, relative to control)” value [3] was 81%. For the same molecule, the “Glucose (value in parentheses, relative to control)” value [3] was 97%, the “Insulin (value in parentheses, relative to control)” value [3] was 49% and the “Triglycerides (value in parentheses, relative to control)” value [3] was 62%. The “Insulin (serum)” value ([3]; mean ± SE, control 3.85 ± 0.74) was 1.91 ± 0.24 ng/mL, the “Triglycerides (serum)” value ([3]; mean ± SE, control 51 ± 3) was 31 ± 3 mg % and the “Cholesterol (serum)” value ([3]; mean ± SE, control 97 ± 5) was 79 ± 6 mg %. For the same molecule, the “Glucose (serum)” value ([3]; mean ± SE, control 165 ± 7) was 160 ± 5 mg %, the “IBW (initial body weight)” value ([4]; baseline of Compound A group, control 215 ± 3) was 214 ± 3 g and the “FI (food intake)” value ([4]; dietary admixture 71 then (day 33) 130 mg/kg/day, 63 days, control 17.7 ± 0.7, pair-fed 16.0 ± 0.4) was 16.3 ± 0.4 g/day. For the same molecule, the “CBWG (cumulative body weight gain)” value ([4]; dietary admixture 71 then (day 33) 130 mg/kg/day, 63 days, control 68 ± 6, pair-fed 66 ± 6) was 41 ± 4 g, the “FBW (final body weight)” value ([4]; dietary admixture 71 then (day 33) 130 mg/kg/day, 63 days, control 282 ± 8, pair-fed 281 ± 6) was 256 ± 4 g and the “CFC (cumulative food consumption)” value ([4]; dietary admixture 71 then (day 33) 130 mg/kg/day, 63 days, control 1115.1 ± 44.1, pair-fed 1008.0 ± 25.2) was 1026.9 ± 25.2 g. For the same molecule, the “Protein, % of body weight” value ([5]; control 19.1 ± 1.6) was 20.7 ± 1.4 % of body weight, the “Lipid, % of body weight” value ([5]; control 23.5 ± 2.2) was 16.5 ± 1.7 % of body weight and the “Protein, total” value ([5]; control 54.1 ± 4.8) was 52.7 ± 0.6 g. For the same molecule, the “Lipid, total” value ([5]; control 66.8 ± 7.1) was 42.1 ± 4.5 g.
For CCCc1scc(C(=O)OC)c1N.Cl [3-amino-4-carbomethoxy-2-n-propylthiophene hydrochloride], the “Fatty Acid Synthesis, [14C]alanine converted” value [6] was 251 ± 36 nmoles/g/30 min, the “Cholesterol Synthesis, 3H2O converted” value ([7]; control 1.36 ± 0.07) was 0.85 ± 0.06 μmoles/g/30 min and the “Cholesterol Synthesis, [14C]alanine converted” value ([7]; control 35.7 ± 3.2) was 17.6 ± 1.9 nmoles/g/30 min. For the same molecule, the “Triglycerides (serum)” value ([8]; control 67 ± 4) was 51 ± 3 mg %, the “Cholesterol (serum)” value ([8]; control 116 ± 7) was 105 ± 11 mg % and the “Fatty Acid Synthesis, 3H2O, % of Control” value [9] was 36 % of Control. The “Fatty Acid Synthesis, [14C]alanine, % of Control” value [9] was 34 % of Control, the “Fatty Acid Synthesis, 3H2O converted” value ([9]; control 19.6 ± 2.4) was 7.1 ± 1.7 μmoles/g/30 min and the “Fatty Acid Synthesis, [14C]alanine converted” value ([9]; control 473 ± 76) was 162 ± 60 nmoles/g/30 min. The “Cholesterol Synthesis, 3H2O, % of Control” value [10, 11] was 71 % of Control, the “Cholesterol Synthesis, [14C]alanine, % of Control” value [10, 11] was 53 % of Control and the “Cholesterol Synthesis, 3H2O converted” value [10, 11] was 0.96 ± 0.05 μmoles/g/30 min. The “Cholesterol Synthesis, [14C]alanine converted” value [10, 11] was 17.4 ± 0.9 nmoles/g/30 min, the “Cholesterol Synthesis, 3H2O, % of Control” value ([10]; oral 1.2 mmoles/kg) was 65 % of Control and the “Cholesterol Synthesis, [14C]alanine, % of Control” value ([10]; oral 1.2 mmoles/kg) was 46 % of Control. For the same molecule, the “Cholesterol Synthesis, 3H2O converted” value ([10]; oral 1.2 mmoles/kg) was 0.88 ± 0.16 μmoles/g/30 min and the “Cholesterol Synthesis, [14C]alanine converted” value ([10]; oral 1.2 mmoles/kg) was 15.2 ± 3.2 nmoles/g/30 min.

Source: US4428963A, “Novel thiophene derivatives” (Hoffmann-La Roche Inc., priority 1983, dated 1984)
